# Reference: the PolyMetriX glass transition set
# ± gives the standard deviation of the reports.
row,glass transition temperature [°C],SMILES
1,397.00,*c1ccc(Oc2cccc(-n3c(=O)c4cc5c(=O)n(*)c(=O)c5cc4c3=O)c2)cc1 (repeat unit)
2,183.50,*c1cccc(-n2c(=O)c3cc4c(=O)n(*)c(=O)c4cc3c2=O)n1 (repeat unit)
3,45.00,*CC(*)c1ccccc1C(=O)OCCCCCC (repeat unit)
4,201.00,*c1ccc(Oc2ccc(Oc3ccc(N4C(=O)c5ccc(Oc6ccc(Sc7ccc(Oc8ccc9c(c8)C(=O)N(*)C9=O)cc7)cc6)cc5C4=O)cc3)cc2)cc1 (repeat unit)
5,293.00,*Nc1ccc(C2(c3ccc(NC(=O)c4ccc(-c5ccc(C(*)=O)c(C)c5)cc4C)cc3)c3ccccc3-c3ccccc32)cc1 (repeat unit)
6,160.00,*Nc1ccc(Cc2ccc(NC(=O)CCCCCCCCC(*)=O)cc2)cc1 (repeat unit)
7,84.00,*CCCCCCCOC(=O)Nc1ccc(Cc2ccc(NC(=O)O*)cc2)cc1 (repeat unit)
8,140.00,*CC(*)(C)C(=O)OCC(C)Oc1ccc(-c2ccc(-c3ccc(C#N)cc3)cc2)cc1 (repeat unit)
9,227.00,*c1ccc(-n2c(=O)c3cc4c(=O)n(*)c(=O)c4cc3c2=O)c(S(=O)(=O)[O][Na])c1 (repeat unit)
10,274.00,*Oc1ccc(NC(=C(C#N)C#N)c2ccc(C(Nc3ccc(*)cc3)=C(C#N)C#N)cc2)cc1 (repeat unit)
11,131.00,*NC1CCC(CC2CCC(NC(=O)CCCCCCCCCCCCC(*)=O)CC2)CC1 (repeat unit)
12,133.00,*OC(C)C#CC#CC(C)OC(=O)c1ccc(C(*)=O)cc1 (repeat unit)
13,259.00,*c1ccc2c(c1)C(=O)N(c1cccc(C(=O)Nc3ccc(Oc4ccc(C(C)(C)c5ccc(Oc6ccc(NC(=O)c7cccc(N8C(=O)c9ccc(C(*)(C(F)(F)F)C(F)(F)F)cc9C8=O)c7)cc6)cc5)cc4)cc3)c1)C2=O (repeat unit)
14,254.00,*CC(=O)Nc1cccc(NC(=O)COc2ccc3ccccc3c2Sc2c(O*)ccc3ccccc23)c1 (repeat unit)
15,206.00,*Oc1c(Br)cc(C(c2cc(Br)c(OC(*)=O)c(Br)c2)(C(F)(F)F)C(F)(F)F)cc1Br (repeat unit)
16,231.00,*c1ccc(NC2CC(=O)N(c3ccc(-c4sc(-c5ccc(N6C(=O)CC(Nc7ccc(-c8nc(C#N)c(C#N)nc8*)cc7)C6=O)cc5)c(-c5ccccc5)c4-c4ccccc4)cc3)C2=O)cc1 (repeat unit)
17,168.00,*Oc1ccc(C2(c3ccc(OC(*)=S)cc3)CCC(C)CC2)cc1 (repeat unit)
18,47.00,*CCCCCCCCOC(=O)c1ccc(-c2ccc(C(=O)O*)cc2)cc1 (repeat unit)
19,-71.00,*O[Si](C=C)(C=C)O[Si](C)(C)c1ccc([Si](*)(C)C)cc1 (repeat unit)
20,13.00,*CCCCOC(=O)OCC1CCC(COC(=O)O*)CC1 (repeat unit)
21,20.50,*/C=C/C(C)C(*)C(=O)OCCN(C)c1ccc(N(C)C)cc1 (repeat unit)
22,250.00,*Oc1ccc(C(C)(C)c2ccc(Oc3ccc(C(=O)Nc4ccc(-c5ccc(NC(=O)c6ccc(*)cc6)cc5C(F)(F)F)c(C(F)(F)F)c4)cc3)cc2)cc1 (repeat unit)
23,17.00,*CC(F)(F)C(F)(F)C(F)(F)COC(=O)c1cccc(C(=O)O*)c1OCCCCC (repeat unit)
24,218.50,*Oc1ccc(Oc2ccc(NC(=O)c3ccc(Oc4ccc(Oc5ccc(C(=O)Nc6ccc(*)cc6)cc5)cc4C)cc3)cc2)cc1C (repeat unit)
25,27.00,*CC(F)(F)C(F)(F)C(F)(F)COC(=O)c1cc(C(=O)O*)cc(C(F)(F)C(F)(F)C(F)(F)C(F)(F)C(F)(F)C(F)(F)C(F)(F)F)c1 (repeat unit)
26,95.00,*CCCCCOc1ccc(OCCCCCc2nnc(-c3ccc(-c4nnc(*)o4)cc3)o2)c(C)c1 (repeat unit)
27,-3.00,*CCCCCCCCCCOc1ccc(CCc2ccc(O*)cc2C)cc1 (repeat unit)
28,260.00,*c1ccc(Oc2ccc(-n3nc(-c4ccccc4)cc3-c3ccc(-c4cc(-c5ccccc5)nn4*)cc3)cc2)cc1 (repeat unit)

row,glass transition temperature [°C],SMILES
1,141.00,*/C=C/c1ccc(*)c(-c2c(OCC(CC)CCCC)ccc3cc(-c4ccccc4)ccc23)c1 (repeat unit)
2,235.00,*Oc1ccc(S(=O)(=O)c2ccc(OC(=O)c3ccc([Si](C)(C)c4ccc(C(*)=O)cc4)cc3)cc2)cc1 (repeat unit)
3,211.00,*Oc1c(-c2ccccc2)cc(*)cc1-c1ccccc1-c1ccccc1 (repeat unit)
4,-9.00,*CCCCCCOC(=O)OCCCCCCCCCCCCOC(=O)OCCCCCCn1c(=O)c2cc3c(=O)n(*)c(=O)c3cc2c1=O (repeat unit)
5,211.00,*CCCCN1C(=O)C2C3C=CC(C4C(=O)N(*)C(=O)C34)C2C1=O (repeat unit)
6,370.00,*C(=O)Nc1ccc(-c2ccc(NC(=O)c3ccc4c(c3)C(=O)N(c3ccc(S(=O)(=O)c5ccc(N6C(=O)c7ccc(*)cc7C6=O)cc5)cc3)C4=O)cc2)cc1 (repeat unit)
7,167.00,*Oc1ccc(S(=O)(=O)c2ccc(Oc3ccc(C(=C)c4ccc(*)cc4)cc3)cc2)cc1 (repeat unit)
8,302.30,*c1ccc2c(c1)C(=O)N(c1ccc(Oc3ccc4ccc(Oc5ccc(N6C(=O)c7ccc(C(*)(C(F)(F)F)C(F)(F)F)cc7C6=O)cc5)cc4c3)cc1)C2=O (repeat unit)
9,60.00,*CC(COc1ccc(C(C)(C)c2ccc(O*)cc2)cc1)OC(=O)CC (repeat unit)
10,100.00,*Cc1ccc(CNC(=O)CCCCCCCCCCCC(=O)N*)cc1 (repeat unit)
11,38.00,*CC(*)c1ccc(C(=O)CCN2CCCCC2)cc1 (repeat unit)
12,161.00,*Oc1ccc(/C(=N/c2ccc(/N=C(\c3ccccc3)c3ccc(Oc4ccc(C(C)(C)c5ccc(*)cc5)cc4)cc3)cc2)c2ccccc2)cc1 (repeat unit)
13,165.00,*c1cccc(OCCCCCOc2cccc(N3C(=O)c4ccc(-c5ccc6c(c5)C(=O)N(*)C6=O)cc4C3=O)c2)c1 (repeat unit)
14,256.00 ± 71,*C(=O)c1ccc2c(c1)C(=O)N(c1ccc(Oc3ccc(C(C)(C)c4ccc(Oc5ccc(N6C(=O)c7ccc(*)cc7C6=O)cc5)cc4)cc3)cc1)C2=O (repeat unit)
15,21.00,*CCCCCCCCOc1c(OC)cc(/C=C/c2cc(CCCCCC)c(/C=C/c3cc(OC)c(O*)c(OC)c3)cc2CCCCCC)cc1OC (repeat unit)
16,279.00,*c1ccc(OC(=O)c2ccc(C(=O)Oc3ccc(C4(*)OC(=O)c5ccccc54)cc3)cc2)cc1 (repeat unit)
17,254.00,*Oc1cc(C(C)(C)C)c(Oc2ccc(C(=O)Nc3ccc(C(C)(C)c4ccc(NC(=O)c5ccc(*)cc5)cc4)cc3)cc2)cc1C(C)(C)C (repeat unit)
18,123.00,*CCN(*)C(=O)C12CC3CC(CC(C3)C1)C2 (repeat unit)
19,62.00,*Oc1ccc(/N=C/C=N/c2ccc(OC(=O)NC3CC(C)(C)CC(C)(CNC(*)=O)C3)cc2)cc1 (repeat unit)
20,167.00,*Oc1ccc(S(=O)(=O)c2ccc(Oc3ccc(NC(=O)c4ccc(Oc5ccc(C(C)(C)c6cccc(C(C)(C)c7ccc(Oc8ccc(C(=O)Nc9ccc(*)cc9)cc8)cc7)c6)cc5)cc4)cc3)cc2)cc1 (repeat unit)
21,135.00,*CCCC(CC)CCNC(=O)c1ccc(C(=O)N*)cc1 (repeat unit)
22,118.00,*/C=C/c1ccc(*)c(-c2c(OCC(CC)CCCC)ccc3ccccc23)c1 (repeat unit)
23,68.50,*CCCCCCCCCCOc1c(OC)cc(/C=C/c2ccc(/C=C/c3cc(OC)c(O*)c(OC)c3)cc2)cc1OC (repeat unit)
24,272.00,*C(=O)Nc1ccc(Oc2ccc(C3(c4ccc(Oc5ccc(NC(=O)c6ccc7c(c6)C(=O)N(c6ccc(Oc8cccc(N9C(=O)c%10ccc(*)cc%10C9=O)c8)cc6)C7=O)cc5)cc4)NC(=O)c4ccccc43)cc2)cc1 (repeat unit)
25,50.00,*CC(*)c1ccc(C(=O)CCCCCCC)cc1 (repeat unit)
26,34.00,*CC(*)(CC(=O)OCCOC)C(=O)OCCOC (repeat unit)
27,308.00 ± 6.8,*c1ccc(Cc2ccc(N3C(=O)c4ccc(-c5ccc6c(c5)C(=O)N(*)C6=O)cc4C3=O)cc2)cc1 (repeat unit)

row,SMILES,glass transition temperature [°C]
1,*OC(F)(F)C(F)(F)C(F)(F)C(*)(F)F (repeat unit),-55.00
2,*CC(*)c1ccccc1COC(C)C (repeat unit),88.00
3,*CC(*)C[Si](C)(C)C (repeat unit),114.00
4,*CC(*)CCCI (repeat unit),30.00
5,*CCCCOC(=O)O* (repeat unit),-27.00
6,*CCCCCCOP(=O)(/N=N/c1ccc(-c2ccc(/N=N/P(=O)(O*)OC)cc2)cc1)OC (repeat unit),37.00
7,*CC(*)C(=O)OC1CC(C)CC(C)(C)C1 (repeat unit),15.00
8,*CC(*)c1ccc(C[Si](C)(C)C)cc1 (repeat unit),82.00
9,*OC(=O)OC1CC2CC(*)CC(C1)O2 (repeat unit),207.00
10,*CC(*)c1ccccn1 (repeat unit) [Poly(o-vinyl pyridine) ],104 ± 1.1
11,*CCOCCOC(=O)C(=O)O* (repeat unit),-28.00
12,*CC(*)(C)C(=O)NC(C)c1ccccc1 (repeat unit),156.50
13,*CC(*)c1ccc(/C(C)=N/O)cc1 (repeat unit),134.00
14,*OC(=O)CCCCCCCCC(*)=O (repeat unit),60.00
15,*C1Oc2ccccc2C1* (repeat unit),65.20
